Values of other authors, collected in patent US20230149510A1, “METHOD FOR ALLEVIATING ARTHRITIS USING EPIDERMAL GROWTH FACTOR” (Lovin BioMed Co., Ltd., priority 2021, published 2023).

What was measured:
OA = conditions: Sun H. et al. (2018); cited from earlier work
[1] = tested on: collagen-induced arthritis; conditions: Swanson C. D. et al. (2012); cited from earlier work

Compound | effect on symptoms in mice with OA (OA) | effect on collagen-induced arthritis [1]
COc1cc2ncnc(Nc3ccc(F)c(Cl)c3)c2cc1OCCCN1CCOCC1 [gefitinib] | can improve symptoms in mice with OA | 
C#Cc1cccc(Nc2ncnc3cc(OCCOC)c(OCCOC)cc23)c1 [erlotinib] |  | can alleviate collagen-induced arthritis
